In patent US20030212115A1, “Remedies for inflammatory bowel diseases” (priority 2000, published 2003):

What was measured:
acetate-caused colitis = test: Acetate-caused colitis model; type: in vivo, Syrian strain male hamster; settings: for area of ulcer: three times (18 h and 1 h before, 6 h after cause of colitis), anatomized 24 hours later, FIG. 1; for amount of the haemoglobin (index of the enteric hemorrhage): three times, washing supernatant of large intestine, 24 hours later, FIG. 2
Protocol: (1) Acetate-Caused Colitis Model.
After 1% aqueous acetic acid (10 ml/kg) is injected from anus of Syrian strain male hamster (7 weeks of ages) into large intestine with a flexible, oral sonde for rat, colitis was caused by clipping anus for 30 minutes. Distilled water was similarly injected into a normal group.
0.5% CMC (10 ml/kg) was orally administered to the normal group and the control group, and 10, 30 and 100 mg/10 ml/kg of a test drug suspended into 0.5% CMC were orally administered to the group administrated test drug three times in total, 18 hours and 1 hour before cause of colitis and 6 hours after cause, respectively.
They were anatomized 24 hours later, and large intestines of 7 cm length were sampled from anus. Then, these intestinals were incised, and these enterics were washed by physiological salt solution (5 ml). they were taken a picture of incised large intestines, and ulcer area (cm^2) was calculated by the image analysis. Moreover, the washing supernatant of large intestine was supplied for the measurement of the amount of the haemoglobin (index of the amount of the enteric hemorrhage).
As a test drug, 2-[5-amino-6-oxo-2-phenyl-1,6-dihydro-1-pyrimidinyl]-N-[1-[[5-(t-butyl)-1,3,4-oxadiazole-2-yl]carbonyl]-2-methylpropyl]acetamide (Compound 34) was used. FIG. 1 and FIG. 2 show the results.

[1] = system: picrylsulfonic acid (TNBS)-caused colitis; test: Picrylsulfonic acid (TNBS)-caused colitis model; type: in vivo, Syrian strain male hamster; settings: for area of the ulcer: once a day before cause, then twice a day, anatomized 5 days later, FIG. 3; for amount of the haemoglobin (index of the enteric hemorrhage): supernatant of washing of large intestine, 5 days later, FIG. 4
Protocol: (2) Picrylsulfonic Acid (TNBS)-Caused Colitis Model.
After 90 mg/ml of TNBS/isotonic solution (with 15 vol % ethanol) liquor (0.1 ml/body) is injected from anus of Syrian strain male hamster (7 weeks of ages) into large intestine with a flexible, oral sonde for rat, colitis was caused by clipping anus for 30 minutes. Distilled water was similarly injected into a normal group.
0.5% CMC (10 ml/kg) was orally administered to the normal group and the control group, and 25, 50 and 100 mg/10 ml/kg doses of a test drug suspended into 0.5% CMC were orally administered to the group administrated test drug once a day before cause of colitis and twice a day until the day of cause before anatomy, respectively.
They were anatomized 5 days later, and large intestines of 3 cm length were sampled from anus. Then, these intestinals were incised, and these enterics were washed by physiological salt solution (2 ml). they were taken a picture of incised large intestines, and ulcer area (cm^2) was calculated by the image analysis. Moreover, the supernatant of washing of large intestine was supplied to the measurement of the amount of the haemoglobin (index of the amount of the enteric hemorrhage).
As a test drug, compound 34 was used as well as example (1). FIG. 3 and FIG. 4 show the results.

CC(C)C(NC(=O)Cn1c(-c2ccccc2)ncc(N)c1=O)C(=O)c1nnc(C(C)(C)C)o1 (centres unmarked) [compound 34, 2-[5-amino-6-oxo-2-phenyl-1,6-dihydro-1-pyrimidinyl]-N-[1-[[5-(t-butyl)-1,3,4-oxadiazole-2-yl]carbonyl]-2-methylpropyl]acetamide]
intentionally suppressed: area of ulcer (acetate-caused colitis; 30 mg/kg orally) | amount of the haemoglobin (index of the enteric hemorrhage) (acetate-caused colitis; 30 mg/kg orally) | area of ulcer (acetate-caused colitis; 100 mg/kg orally) | amount of the haemoglobin (index of the enteric hemorrhage) (acetate-caused colitis; 100 mg/kg orally) | area of the ulcer ([1]; 50 mg/kg orally) | amount of the haemoglobin (index of the enteric hemorrhage) ([1]; 50 mg/kg orally) | area of the ulcer ([1]; 100 mg/kg orally) | amount of the haemoglobin (index of the enteric hemorrhage) ([1]; 100 mg/kg orally)
